Our source for the Kd values is publication PMC4571936, “Pre-steady-state Kinetic Analysis of a Family D DNA Polymerase from Thermococcus sp. 9°N Reveals Mechanisms for Archaeal Genomic Replication and Maintenance” (The Journal of Biological Chemistry, 2015).

For test [1], the target named is T1, 9°N polD^− (exonuclease-deficient polD mutant H554A).
T1 construct: gene polC; recombinant purified heterodimer of large and small subunit, ~1:1; with DNA polymerase II small subunit
The test can be described thus: pre-steady-state single-turnover nucleotide incorporation, rapid chemical quench, capillary electrophoresis. The conditions noted are these: apparent Kd, correct pairing, 2 mM MgSO4, ThermoPol buffer pH 8.8 (at 25 °C), 60 °C. The test is classed as biochemical, Thermococcus sp. 9°N.

Test [2] has the same target. The experiment in a line: pre-steady-state single-turnover nucleotide incorporation, rapid chemical quench, denaturing gel electrophoresis. The test is classed as biochemical, Thermococcus sp. 9°N. The conditions noted are these: apparent Kd; correct pairing, template G with 5'-FAM 50-mer primer; 2 mM MgSO4, ThermoPol buffer pH 8.8 (at 25 °C), 60 °C.
Procedure: pre-steady-state single-turnover nucleotide incorporation, rapid chemical quench, denaturing gel electrophoresis on 9°N polD^− (exonuclease-deficient polD mutant H554A)

Structures are written as SMILES.

In the case of `Nc1ncnc2c1ncn2[C@H]1C[C@H](O)[C@@H](COP(=O)(O)OP(=O)(O)OP(=O)(O)O)O1` [dATP], in test [1] (template T with 5'-FAM 50-mer primer), the Kd is 2500 ± 100 nM.

Turning to `Nc1ccn([C@H]2C[C@H](O)[C@@H](COP(=O)(O)OP(=O)(O)OP(=O)(O)O)O2)c(=O)n1` [dCTP], the Kd in test [2] is 1700 ± 100 nM.

`Nc1nc2c(ncn2[C@H]2C[C@H](O)[C@@H](COP(=O)(O)OP(=O)(O)OP(=O)(O)O)O2)c(=O)[nH]1` [dGTP]: the Kd in test [1] (template C with 5'-FAM 50-mer primer) was 900 ± 300 nM.

In the case of `Cc1cn([C@H]2C[C@H](O)[C@@H](COP(=O)(O)OP(=O)(O)OP(=O)(O)O)O2)c(=O)[nH]c1=O` [dTTP], in test [1] (A Template-1 with 5'-FAM 50-mer primer), the Kd is 1600 ± 100 nM.
